Key:
[1] = Body weight change after first CD20-TCB therapy; format: in vivo, humanized NSG mice; conditions: before and after the first CD20-TCB treatment, 20 mg/kg NLRP3 inhibitor i.p.
Experimental: FIG. 7. Effect of the NLRP3 inhibitor on body weight loss induced by the first CD20-TCB therapy. Treatment was performed as described in FIG. 4. The body weight of each animal was measured before and after the first therapy with CD20-TCB to calculate body weight change [%]. Means+/−SEM.
The effects of the NLRP3 inhibitor on anti-tumor efficacy and cytokine release mediated by CD20-TCB in vivo were evaluated using a diffused large B cell lymphoma (DLBCL) tumor model in humanized NSG mice. Briefly, humanized NSG mice were engrafted with OCI-LY18 tumor cells. When the tumor volume reached 200 mm^3, mice were randomized in groups of 14 based on their tumor size. […]
The levels of cytokines were measured in serum collected by tail-vein bleedings 3 hrs after the first treatment with CD20-TCB to determine the effects of the NLRP3 inhibitor on CD20-TCB-mediated cytokine release in vivo. […] In addition, the NLRP3 inhibitor modified the cytokine profile induced by CD20-TCB treatment, as indicated by the heat map showing the levels of IFN-γ, IL-2, TNF-α, […], IL-1Ra, IL-6, IL-8, MCP-1, MIP-1α and […] which were measured 3 hrs after the first treatment with CD20-TCB (FIG. 6). Last, we measured the body weight of each animal before and after the first treatment with CD20-TCB to calculate the body weight change. […]

OCI-LY18 tumor cells = test: Anti-tumor efficacy of CD20-TCB in DLBCL tumor model in humanized NSG mice; format: in vivo; conditions: 20 mg/kg NLRP3 inhibitor i.p.
Experimental: FIGS. 4A-4B. Effect of the NLRP3 inhibitor on CD20-TCB-mediated anti-tumor efficacy. OCI-Ly18-bearing humanized NSG mice were pre-treated with 30 mg/kg obinutuzumab (Gazyva® pre-treatment, Gpt, dotted black arrow) and then treated with escalating doses of CD20-TCB (black arrows, 0.5 mg/kg on the 1st treatment, 1 mg/kg on the 2nd treatment and 2 mg/kg on the 3rd treatment) by intravenous (i.v.) injections. 20 mg/kg NLRP3 inhibitor (grey arrows) was given by intraperitoneal injections 1 hr before, 4 hrs and 24 hrs after the 1st CD20-TCB therapy as well as 1 hr before and 4 hrs after the 2nd CD20-TCB therapy. FIG. 4A. Tumor growth inhibition curves, means−/+SD. Tumor volumes were calculated from caliper measurements conducted 2 or 3 times per week. FIG. 4B. […] Tumors were digested and the counts of CD8+ T cells were measured by flow cytometry.
The effects of the NLRP3 inhibitor on anti-tumor efficacy and cytokine release mediated by CD20-TCB in vivo were evaluated using a diffused large B cell lymphoma (DLBCL) tumor model in humanized NSG mice. […]
To assess the effects of the NLRP3 inhibitor on tumor growth, tumor volumes were calculated from caliper measurements twice or three times per week. Furthermore, the counts of CD8+ T cells were measured by flow cytometry in tumors collected 24 hrs after the third treatment with CD20-TCB.

[2] = test system: cytokine release in whole blood; test: Whole blood assay: CD20-TCB-mediated cytokine release, serum cytokines by Luminex; format: cell-based, human
Experimental: (§1) FIGS. 1A-1N. Effect of the NLRP3 inhibitor on CD20-TCB-mediated T cell activation, B cell depletion and cytokine release. Fresh whole blood from a healthy donor (donor 1) was incubated with escalating doses of CD20-TCB and 10 μM NLRP3 inhibitor. At 24 hrs, blood from technical replicates was pooled and lysed. FIG. 1A. The killing of CD19+ B cells was measured by flow cytometry. FIG. 1B and FIG. 1C. The expression of CD25 on CD4+ (1B) and CD8+ (1C) T cells was measured by flow cytometry. At 24 hrs, serum from technical replicates were collected and pooled. FIG. 1D-FIG. 1N. The levels of IFN-γ (1D), IL-2 (1E), IL-1β (1F), IL-1Ra (1G), TNF-α (1H), IP-10 (1I), IL-6 (1J), IL-8 (1K), MCP-1 (1L), MIP-1α (1M) and MIP-1β (1N) were measured by Luminex.
(§2) FIGS. 2A-2N. Effect of the NLRP3 inhibitor on CD20-TCB-mediated T cell activation, B cell depletion and cytokine release. Fresh whole blood from a healthy donor (donor 2) was incubated with escalating doses of CD20-TCB and 10 μM NLRP3 inhibitor. At 24 hrs, blood from technical replicates was pooled and lysed. FIG. 2A. The killing of CD19+ B cells was measured by flow cytometry. FIG. 2B and FIG. 2C. The expression of CD25 on CD4+ (FIG. 2B) and CD8+ (FIG. 2C) T cells was measured by flow cytometry. At 24 hrs, serum from technical replicates were collected and pooled. FIG. 2D-FIG. 2N. The levels of IFN-γ (2D), IL-2 (2E), IL-1β (2F), IL-1Ra (2G), TNF-α (2H), IP-10 (2I), IL-6 (2J), IL-8 (2K), MCP-1 (2L), MIP-1α (2M) and MIP-1β (2N) were measured by Luminex.
(§3) FIGS. 3A-3N. Effect of the NLRP3 inhibitor on CD20-TCB-mediated T cell activation, B cell depletion and cytokine release. Fresh whole blood from a healthy donor (donor 3) was incubated with escalating doses of CD20-TCB and […] NLRP3 inhibitor. At 24 hrs, blood from technical replicates was pooled and lysed. FIG. 3A. The killing of CD19+ B cells was measured by flow cytometry. FIG. 3B and FIG. 3C. The expression of CD25 on CD4+ (3B) and CD8+ (3C) T cells was measured by flow cytometry. At 24 hrs, serum from technical replicates were collected and pooled. FIG. 3D-FIG. 3N. The levels of IFN-γ (3D), IL-2 (3E), IL-1β (3F), IL-1Ra (3G), TNF-α (3H), IP-10 (3I), IL-6 (3J), IL-8 (3K), MCP-1 (3L), MIP-1α (3M) and MIP-1β (3N) were measured by Luminex.
(§4) To assess the effects of the NLRP3 inhibitor on TCB-mediated target cell killing and T cell activation, we conducted whole blood assays using fresh whole blood from 3 healthy donors incubated with escalating concentrations of CD20-TCB (SEQ ID NOs 4-23) in combination with 10 μM of the NLRP3 inhibitor (MCC950, Sigma-Aldrich). At 24 hrs, the killing of CD19+ B cells together with the expression of CD25 on CD4+ and CD8+ T cells was measured in whole blood by flow cytometry.
The levels of cytokines were measured by Luminex in the serum of whole blood treated with CD20-TCB in the presence and in the absence of the NLRP3 inhibitor to determine the effects of the NLRP3 inhibitor on cytokine release.

CD4+ and CD8+ T cells = test: Whole blood assay: CD20-TCB-induced T cell activation, CD25 expression (flow cytometry); format: cell-based, human; conditions: 10 μM NLRP3 inhibitor, 24 hrs
Experimental: as §1, §2, §3, §4

cytokine release = test: CD20-TCB-mediated cytokine release in vivo, serum cytokines by Luminex; design: species or system humanized NSG mice; conditions: 3 hrs after first CD20-TCB treatment
Experimental: FIGS. 5A-5E. Effect of the NLRP3 inhibitor on IL-2, IFN-γ, TNF-α, IL-1β, and IL-6 induced by CD20-TCB. Treatment was performed as described in FIG. 4. Blood was collected by tail-vein bleedings 3 hrs after the 1st CD20-TCB therapy. The levels of FIG. 5A. IL-2, FIG. 5B. IFN-γ, FIG. 5C. TNF-α, FIG. 5D. IL-1β, and FIG. 5E. IL-6 were measured in the serum by Luminex. Means of n=5 mice+/−SEM.
FIG. 6. Heatmap representing the effects of the NLRP3 inhibitor on CD20-TCB mediated cytokine release. Treatment was performed as described in FIG. 4. Blood was collected by tail-vein bleeding 3 hrs after the 1st CD20-TCB therapy. The levels of IFN-γ, IL-2, TNF-α, IP-10, IL-1β, IL-1Ra, IL-6, IL-8, MCP-1, MIP-1α and MIP-1β were measured in serum by Luminex for n=5 mice per group.
The effects of the NLRP3 inhibitor on anti-tumor efficacy and cytokine release mediated by CD20-TCB in vivo were evaluated using a diffused large B cell lymphoma (DLBCL) tumor model in humanized NSG mice. Briefly, humanized NSG mice were engrafted with OCI-LY18 tumor cells. When the tumor volume reached 200 mm^3, mice were randomized in groups of 14 based on their tumor size. They were then pre-treated with 30 mg/kg obinutuzumab (Gazyva® pre-treatment, GpT) 7 days before being treated with CD20-TCB to deplete peripheral B cells. The NLRP3 inhibitor was given 1 hr before and 4 and 24 hrs after the first CD20-TCB treatment as well as 1 hr before and 4 hrs after the second CD20-TCB treatment.
The levels of cytokines were measured in serum collected by tail-vein bleedings 3 hrs after the first treatment with CD20-TCB to determine the effects of the NLRP3 inhibitor on CD20-TCB-mediated cytokine release in vivo. In line with previous in vitro findings, the NLRP3 inhibitor retained IL-2, IFN-γ, TNF-α while reducing IL-6, IL-8 and IL-1β levels induced by CD20-TCB (FIGS. 5A-E, FIG. 6). In addition, the NLRP3 inhibitor modified the cytokine profile induced by CD20-TCB treatment, as indicated by the heat map showing the levels of IFN-γ, IL-2, TNF-α, […], IL-1Ra, IL-6, IL-8, MCP-1, MIP-1α and […] which were measured 3 hrs after the first treatment with CD20-TCB (FIG. 6). Last, we measured the body weight of each animal before and after the first treatment with CD20-TCB to calculate the body weight change. […] (FIG. 7).

CD19+ B cells = test: Whole blood assay: CD20-TCB-induced killing of CD19+ B cells (flow cytometry); format: cell-based, human; conditions: 10 μM NLRP3 inhibitor, escalating CD20-TCB, fresh whole blood of 3 healthy donors, 24 hrs
Experimental: as §1
FIGS. 2A-2N. Effect of the NLRP3 inhibitor on CD20-TCB-mediated T cell activation, B cell depletion and cytokine release. […] The killing of CD19+ B cells was measured by flow cytometry. […] The expression of CD25 on CD4+ (FIG. 2B) and CD8+ (FIG. 2C) T cells was measured by flow cytometry. […] The levels of IFN-γ (2D), IL-2 (2E), IL-1β (2F), IL-1Ra (2G), TNF-α (2H), IP-10 (2I), IL-6 (2J), IL-8 (2K), MCP-1 (2L), MIP-1α (2M) and MIP-1β (2N) were measured by Luminex.
FIGS. 3A-3N. […] The killing of CD19+ B cells was measured by flow cytometry. […] The expression of CD25 on CD4+ (3B) and CD8+ (3C) T cells was measured by flow cytometry. […]

[3] = 10 μM NLRP3 inhibitor with CD20-TCB, whole blood serum, 24 hrs, 3 donors
[4] = 10 μM NLRP3 inhibitor with CD20-TCB, whole blood serum, 24 hrs, in all 3 donors

SMILES: CC(C)(O)c1coc(S(=O)(=O)NC(=O)Nc2c3c(cc4c2CCC4)CCC3)c1 [NLRP3 inhibitor, MCC950]
- body weight loss induced by CD20-TCB [1]: prevented body weight loss
- anti-tumor efficacy mediated by CD20-TCB (tumor volume) (OCI-LY18 tumor cells; obinutuzumab pre-treatment, CD20-TCB 0.5, 1, 2 mg/kg i.v. weekly): did not interfere
- CD8+ T cell infiltration in tumors (OCI-LY18 tumor cells; 24 hrs after the third CD20-TCB treatment, flow cytometry): did not interfere
- level of IFN-γ [2, 3]: did not influence
- level of IL-1Ra [2, 3]: did not influence
- level of IL-2 [2, 3]: did not influence
- level of IP-10 [2, 3]: did not influence
- level of MCP-1 [2, 3]: did not influence
- level of MIP-1α [2, 3]: did not influence
- level of MIP-1β [2, 3]: did not influence
- level of TNF-α [2, 3]: did not influence
- level of IL-6 ([2]; 10 μM NLRP3 inhibitor with CD20-TCB, whole blood serum, 24 hrs, in 2 out of 3 donors): reduced
- level of IL-1β [2, 4]: reduced
- level of IL-8 [2, 4]: reduced
- TCB-induced cytokine release ([2]; general statement): reduce
- T cell activation induced by CD20-TCB (CD4+ and CD8+ T cells): did not interfere
- T cell activation induced by CD20-TCB (CD4+ and CD8+ T cells; listed as MCC950): retaining
- expression of the activation marker CD25 on CD4+ T cells (CD4+ and CD8+ T cells; escalating CD20-TCB, 3 donors): did not prevent
- expression of the activation marker CD25 on CD8+ T cells (CD4+ and CD8+ T cells; escalating CD20-TCB, 3 donors): did not prevent
- serum IFN-γ level induced by CD20-TCB (cytokine release; 20 mg/kg NLRP3 inhibitor i.p.): retained
- serum IL-1β level induced by CD20-TCB (cytokine release; 20 mg/kg NLRP3 inhibitor i.p.): reducing
- serum IL-2 level induced by CD20-TCB (cytokine release; 20 mg/kg NLRP3 inhibitor i.p.): retained
- serum IL-6 level induced by CD20-TCB (cytokine release; 20 mg/kg NLRP3 inhibitor i.p.): reducing
- serum IL-8 level induced by CD20-TCB (cytokine release; 20 mg/kg NLRP3 inhibitor i.p.): reducing
- serum TNF-α level induced by CD20-TCB (cytokine release; 20 mg/kg NLRP3 inhibitor i.p.): retained
- cytokine profile induced by CD20-TCB treatment (heat map) (cytokine release; 11 cytokines in serum): modified
- CD20-TCB-induced B cell depletion (percentage of CD19+ B cells among CD45+ cells) (CD19+ B cells): minimally interfered
- CD20-TCB-induced B cell depletion (percentage of CD19+ B cells among CD45+ cells) (CD19+ B cells; listed as MCC950): retaining

— patent US20230416412A1, “PREVENTION OR MITIGATION OF T-CELL ENGAGING AGENT-RELATED ADVERSE EFFECTS” (Hoffmann-La Roche Inc., priority 2022, published 2023)
